Assay results: patent US8853258B2, “C-linked hydroxamic acid derivatives useful as antibacterial agents” (Pfizer Inc., priority 2009, dated 2014)
pIC50: −log10 of the molar value.

Assays:
[1] = molecular target: Pseudomonas aeruginosa LpxC enzyme (Pseudomonas aeruginosa (strain ATCC 15692 / DSM 22644 / CIP 104116 / JCM 14847 / LMG 12228 / 1C / PRS 101 / PAO1), UniProt P47205); assay: IC50 Assay, LpxC Enzyme from P. aeruginosa (PA LpxC Enzyme IC50); type: biochemical; details: P. aeruginosa LpxC enzyme; read-out: PA LpxC enzyeme IC50
Procedure, shortened: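 Reaction run 1 h then stopped with 1N HCl. Conversion measured by RapidFire high-throughput mass spectrometry. IC50 derived from percent conversion relative to a no-enzyme control.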

[2] = test system: Escherichia coli EC-1: VOGEL, mouse virulent; assay: MIC determination (CLSI), EC-1; type: cell-based; details: Escherichia coli EC-1 VOGEL, mouse virulent
Procedure, shortened: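 E. coli Vogel, a mouse-virulent strain (EC-1), was tested. MICs were set by dilution susceptibility testing per CLSI standards M7-A7/M100-S18.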

[3] = test system: Pseudomonas aeruginosa UI-18: Wild-type (PA-7); assay: MIC determination (CLSI), PA-7; type: cell-based; details: Pseudomonas aeruginosa UI-18 wild-type PA-7
Procedure, shortened: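 MIC by dilution method per CLSI M7-A7 and M100-S18 guidelines. Strain: wild-type Pseudomonas aeruginosa UI-18.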

[4] = test system: Acinetobacter baumanii/haemolyticus: Multidrug-resistant clinical isolate (AB-3167); assay: MIC determination (CLSI), AB-3167; type: cell-based; details: Acinetobacter baumanii/haemolyticus multidrug-resistant clinical isolate AB-3167
Procedure, shortened: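 Multidrug-resistant clinical isolate AB-3167 (A. baumannii/haemolyticus) tested for minimum inhibitory concentration following CLSI dilution susceptibility standards M7-A7 and M100-S18.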

[5] = test system: Klebsiella pneumoniae: Ciprofloxacin-resistant isolate, ESBL, clinical isolate (KP-3700); assay: MIC determination (CLSI), KP-3700; type: cell-based
Procedure, shortened: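 MIC measured by broth dilution according to CLSI M7-A7 and M100-S18 standards. Test organism was a ciprofloxacin-resistant, ESBL-expressing clinical isolate.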

| Structure (SMILES) | pIC50 [1] | EC-1 MIC [2] | PA-7 MIC [3] | AB-3167 MIC [4] | KP-3700 MIC [5] |
| --- | --- | --- | --- | --- | --- |
| Cc1cc(CCC(C)(C(=O)NO)S(C)(=O)=O)ccc1-c1ccccc1 (stereo not shown) [Example 159] | 8.25 | 4 mg/L | 8 mg/L | 32 mg/L | 16 mg/L |
| Cc1cc(CCC(C)(C(=O)NO)S(C)(=O)=O)ccc1-c1ccc(F)cc1 (stereo not shown) [Example 160] | 8.60 | 2 mg/L | 4 mg/L | 16 mg/L | 8 mg/L |
| Cc1cc(-c2ccc(C#N)cc2)ccc1CCC(C)(C(=O)NO)S(C)(=O)=O (stereo not shown) [Example 161] | 9.14 | 1 mg/L | 4 mg/L | ≧64 mg/L | 16 mg/L |
| Cc1cc(CCC(C)(C(=O)NO)S(C)(=O)=O)ccc1-c1ccc(C#N)cc1 (stereo not shown) [Example 162] | 9.62 | 2 mg/L | 4 mg/L | 16 mg/L | 16 mg/L |
| CC(CCc1ccc(-c2ccc(N3CCOCC3)cc2)cc1)(C(=O)NO)S(C)(=O)=O (stereo not shown) [Example 165] | 9.53 | 0.5 mg/L | 8 mg/L | ≧64 mg/L | 8 mg/L |
| CN1CCN(c2ccc(-c3ccc(CCC(C)(C(=O)NO)S(C)(=O)=O)cc3)cc2)CC1 (stereo not shown) [Example 166] | 8.93 | 4 mg/L | 2 mg/L | ≧64 mg/L | 16 mg/L |
| CC(CCc1ccc(-c2ccc(F)cc2)c(F)c1)(C(=O)NO)S(C)(=O)=O (stereo not shown) [Example 167] | 9.63 | 1 mg/L | 0.5 mg/L | 8 mg/L | 4 mg/L |
| CC(CCc1ccc(-c2ccc(C#N)cc2)cc1F)(C(=O)NO)S(C)(=O)=O (stereo not shown) [Example 168] | 9.37 | 1 mg/L | 1 mg/L | ≧64 mg/L | 2 mg/L |
| CC(CCc1ccc(-c2ccc(C(=O)CO)cc2)cc1)(C(=O)NO)S(C)(=O)=O (stereo not shown) [Example 169] | 9.70 | 2 mg/L | 1 mg/L | 32 mg/L | 4 mg/L |
| COc1cccc(-c2ccc(CC[C@](C)(C(=O)NO)S(C)(=O)=O)cc2)c1 [Example 170] | 7.27 | ≧64 mg/L | ≧64 mg/L | 16 mg/L | ≧64 mg/L |
| COc1cc(CCC(C)(C(=O)NO)S(C)(=O)=O)ccc1-c1ccccc1 (stereo not shown) [Example 171] | 7.84 | 4 mg/L | 32 mg/L | ≧64 mg/L | 16 mg/L |
| C[C@@](CCc1ccc(-c2ccc(OCCN3CCOCC3)cc2)cc1)(C(=O)NO)S(C)(=O)=O [Example 172] | 9.29 | 0.5 mg/L | 4 mg/L | ≧64 mg/L | 4 mg/L |
| CC(CCc1ccc(-c2ccc3c(c2)CNC3)cc1)(C(=O)NO)S(C)(=O)=O (stereo not shown) [Example 173] | 8.57 | ≧64 mg/L | 16 mg/L | ≧64 mg/L | ≧64 mg/L |
| CC(CCc1ccc(-c2ccc3nonc3c2)cc1)(C(=O)NO)S(C)(=O)=O (stereo not shown) [Example 174] | 9.27 | 4 mg/L | 2 mg/L | ≧64 mg/L | 8 mg/L |
| C[C@](CCc1ccc(-c2ccc3c(c2)OCCO3)cc1)(C(=O)NO)S(C)(=O)=O [Example 175] | 7.84 | 32 mg/L | ≧64 mg/L | ≧64 mg/L | ≧64 mg/L |
| CC(CCc1ccc(-c2ccc3c(c2)OCO3)cc1)(C(=O)NO)S(C)(=O)=O (stereo not shown) [Example 176] | 10.52 | 0.5 mg/L | 0.5 mg/L | 16 mg/L | 2 mg/L |
| CC(CCc1ccc(-c2ccc(O)cc2)c(F)c1)(C(=O)NO)S(C)(=O)=O (stereo not shown) [Example 177] | 9.51 | 1 mg/L | 2 mg/L | 32 mg/L | 8 mg/L |
| CC(CCc1ccc(-c2ccc(O)cc2)cc1F)(C(=O)NO)S(C)(=O)=O (stereo not shown) [Example 178] | 10.23 | 1 mg/L | 1 mg/L | 8 mg/L | 4 mg/L |
| C[C@@](CCc1ccc(-c2ccc(OCCCN3CCOCC3)cc2)cc1)(C(=O)NO)S(C)(=O)=O [Example 179] | 9.76 | 0.125 mg/L | 2 mg/L | 2 mg/L | 2 mg/L |
| CC(=O)c1cc(-c2ccc(CCC(C)(C(=O)NO)S(C)(=O)=O)cc2)ccc1O (stereo not shown) [Example 180] | 9.08 | 4 mg/L | 8 mg/L | 16 mg/L | 16 mg/L |
| CC(=O)c1ccc(-c2ccc(CCC(C)(C(=O)NO)S(C)(=O)=O)cc2)cc1O (stereo not shown) [Example 181] | 9.86 | 0.5 mg/L | 2 mg/L | 8 mg/L | 8 mg/L |
| CC(=O)c1ccc(-c2ccc(CC[C@](C)(C(=O)NO)S(C)(=O)=O)cc2)cc1 [Example 182] | 10.17 | 0.5 mg/L | 0.5 mg/L | 16 mg/L | 1 mg/L |
| CC(CCc1ccc(-c2ccc(C(=O)CO)cc2)cc1F)(C(=O)NO)S(C)(=O)=O (stereo not shown) [Example 183] | 9.41 | 2 mg/L | 2 mg/L | ≧64 mg/L | 4 mg/L |
